Where two headings read alike, the source gives them in different places.
Assays:
parental HEK cells = experiment: HEK parental Agonist Counterscreen Assay (non-transfected cells); assay type: cell-based; conditions: for Averaged Max % Response (±St. Dev.): activity relative to known control
Description: The high control for the agonist counterscreen was Forskolin not acetylcholine.

GPR139 = biological target: T1, GPR139 (Homo sapiens, UniProt Q6DWJ6); experiment: GPR139 Agonist titration / agonist counterscreen assay (calcium detection, HEK-GPR139 cells); assay type: cell-based; set-up: expressed in transfected cells; host or cells: HEK Aequorin cells, Maxcyte transient transfection; conditions: GPR139 Agonist Activity; for EC50: read-out: EC50; for Averaged Max % Response (±St. Dev.): activity relative to known control
T1 sequence (Q6DWJ6 1-353): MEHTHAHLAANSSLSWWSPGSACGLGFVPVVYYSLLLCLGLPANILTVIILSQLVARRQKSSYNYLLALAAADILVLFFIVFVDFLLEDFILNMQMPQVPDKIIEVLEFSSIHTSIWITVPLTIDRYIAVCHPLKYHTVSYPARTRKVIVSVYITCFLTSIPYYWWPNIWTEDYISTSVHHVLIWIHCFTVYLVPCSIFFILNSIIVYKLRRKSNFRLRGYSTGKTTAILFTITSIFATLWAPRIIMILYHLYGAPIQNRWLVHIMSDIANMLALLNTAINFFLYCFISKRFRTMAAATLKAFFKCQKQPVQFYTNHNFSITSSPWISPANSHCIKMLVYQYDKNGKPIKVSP
Protocol: GPR activity was assessed using a calcium detection assay. […] Negative control samples were treated with DMSO. […] Intracellular calcium was measured using Calcium 5.

[1] = HEK Agonist Activity section of Table 4 (parental HEK counterscreen)
[2] = Homo sapiens, HEK293, HEK Agonist Activity, parental non-transfected HEK cells
[3] = values printed in E-notation without unit
[4] = Homo sapiens, HEK293, HEK Agonist Activity section of Table 4 (parental HEK counterscreen)

| Lipophilic Efficiency (logD) (parental HEK cells; HEK Agonist Activity section) | Lipophilic Efficiency (logP) (parental HEK cells; HEK Agonist Activity section) | Averaged Max % Response (±St. Dev.) (GPR139) | Lipophilic Efficiency (logD) (parental HEK cells; HEK Agonist Activity) | Lipophilic Efficiency (logP) (parental HEK cells; HEK Agonist Activity) | Lipophilic Efficiency (logD) (GPR139; based on logD) | Lipophilic Efficiency (logP) (GPR139; based on logP) | Hill Slope (GPR139; fitted dose-response curve) | Efficiency Ligand (GPR139; ligand efficiency) | EC50 (GPR139; [3]) | SMILES | Averaged Max % Response (±St. Dev.) (parental HEK cells; HEK Agonist Activity section) | Averaged Max % Response (±St. Dev.) (parental HEK cells; HEK Agonist Activity) | EC50 (parental HEK cells; [4]) | also measured |
| --- | --- | --- | --- | --- | --- | --- | --- | --- | --- | --- | --- | --- | --- | --- |
| 1.33 | 1.32 | 90.02 ± 17.44% | – | – | 3.63 | 3.62 | 0.77 | 0.45 | 77.1 nM | CC(C)(C)OC(=O)NNC(=O)COCc1ccc(Cl)c(Cl)c1 [SR-01000074687] | 17.98 ± 4.87% | – | > 15400 nM | – |
| – | – | 112.57 ± 13.42% | 3.29 | 3.29 | 7.01 | 7.01 | 0.64 | 0.43 | 2.9 nM | CN(Cc1cccs1)C(=O)CN1C(=O)NC(C)(c2ccc3c(c2)OCO3)C1=O (stereo not shown) [SR-01000068229] | – | −2.42 ± 7.08% | – | EC50 (parental HEK cells; HEK Agonist Activity, parental non-transfected HEK cells): > 15400 nM |
| 2.82 | 2.82 | 71.34 ± 19.37% | – | – | – | – | – | – | – | C=C(CCC)c1ccc(CCC2=NNC(c3ccccc3)N2C)cc1 (stereo not shown) [SR-01000299610] | −12.89 ± 6.99% | – | > 14100 nM | Efficiency Ligand (GPR139): 0.33; Hill Slope (GPR139): 0.79; Lipophilic Efficiency (logD) (GPR139): 3.88; Lipophilic Efficiency (logP) (GPR139): 3.88 |
| – | – | 142.11 ± 3.85% | 2.30 | 2.29 | 4.81 | 4.80 | 0.18 | 0.38 | 43.1 nM | Cc1cccc(CCNC(=O)c2c[nH]c3cc(-c4cn[nH]c4)ccc23)c1 [SR-00000007279] | – | 17.20 ± 7.85% | – | EC50 (parental HEK cells; [2]): > 14100 nM |
| 1.74 | 1.74 | 83.25 ± 20.00% | – | – | 3.74 | 3.74 | 0.73 | 0.35 | 143 nM | Cc1ccc(CCNC(=O)CN2CCN(Cc3ccccc3Cl)C2=O)cc1 [SR-01000125464] | 5.57 ± 17.96% | – | > 14100 nM | – |
| – | – | 126.06 ± 10.32% | 1.00 | 1.00 | 4.02 | 4.02 | 0.31 | 0.39 | 13.6 nM | Cc1cc(C(=O)CCC(=O)NNC(=O)CSc2nc3ccccc3s2)c(C)s1 [SR-01000070591] | – | −5.74 ± 0.47% | – | EC50 (parental HEK cells; [2]): > 14300 nM |
| – | – | 134.67 ± 13.58% | 0.84 | 0.84 | 4.01 | 4.01 | 0.55 | 0.34 | 10.4 nM | O=C(CN1C(=O)NC2(CCc3ccccc3C2)C1=O)Nc1ccccc1Oc1ccccc1 (stereo not shown) [SR-01000039980] | – | 39.53 ± 8.33% | – | EC50 (parental HEK cells; [2]): > 15300 nM |
| 2.10 | 2.10 | 123.62 ± 30.65% | – | – | 4.22 | 4.22 | 0.32 | 0.36 | 106 nM | CC(C(=O)NCCC1=CCCCC1)n1c(=O)c2cccn2c2ccccc21 (stereo not shown) [SR-01000142419] | −9.79 ± 12.86% | – | > 14100 nM | – |
| 3.76 | 3.76 | 87.67 ± 13.61% | – | – | – | – | – | – | – | Cc1[nH]c(=O)[nH]c(=O)c1/C=N\NC(=O)CCc1ccc(OC(C)C)cc1 [SR-01000357697] | −2.06 ± 7.71% | – | > 14100 nM | Efficiency Ligand (GPR139): 0.31; Hill Slope (GPR139): 1.75; Lipophilic Efficiency (logD) (GPR139): 4.74; Lipophilic Efficiency (logP) (GPR139): 4.74 |

Further lines, the compound ahead of its results:

| SMILES | Lipophilic Efficiency (logD) (parental HEK cells; HEK Agonist Activity section) | Lipophilic Efficiency (logP) (parental HEK cells; HEK Agonist Activity section) | Averaged Max % Response (±St. Dev.) (GPR139) | Lipophilic Efficiency (logD) (parental HEK cells; HEK Agonist Activity) | Lipophilic Efficiency (logP) (parental HEK cells; HEK Agonist Activity) | Lipophilic Efficiency (logD) (GPR139; based on logD) | Lipophilic Efficiency (logP) (GPR139; based on logP) | Hill Slope (GPR139; fitted dose-response curve) | Efficiency Ligand (GPR139; ligand efficiency) | EC50 (GPR139; [3]) | Averaged Max % Response (±St. Dev.) (parental HEK cells; HEK Agonist Activity section) | Averaged Max % Response (±St. Dev.) (parental HEK cells; HEK Agonist Activity) | EC50 (parental HEK cells; [4]) | also measured |
| --- | --- | --- | --- | --- | --- | --- | --- | --- | --- | --- | --- | --- | --- | --- |
| CCOC(=O)c1cccc(NC(=O)Cc2cccc3ccccc23)c1 [SR-01000267161] | 0.46 | 0.46 | 105.03 ± 11.34% | – | – | – | – | – | – | – | 13.91 ± 0.63% | – | – | EC50 (parental HEK cells; [1]): > 14100 nM; Efficiency Ligand (GPR139): 0.33; Hill Slope (GPR139): 0.55; Lipophilic Efficiency (logD) (GPR139): 1.49; Lipophilic Efficiency (logP) (GPR139): 1.49; EC50 (GPR139; HEK-GPR139 cells): 1300 nM |
| O=C(Cn1ccc2ccccc21)NCCn1cnc(-c2ccccc2)cc1=O [SR-01000926956] | – | – | 100.27 ± 11.90% | 2.87 | 2.87 | 5.36 | 5.36 | 0.74 | 0.37 | 45.1 nM | – | −3.24 ± 9.86% | – | EC50 (parental HEK cells; [2]): > 14100 nM |
| CCn1c(C)nc2cc(C(=O)NNC(=O)Cc3cccc4ccccc34)ccc21 [SR-01000041378] | – | – | 94.48 ± 15.59% | 1.79 | 1.79 | 4.29 | 4.29 | 0.61 | 0.35 | 46.1 nM | – | −2.48 ± 2.57% | – | EC50 (parental HEK cells; [2]): > 14600 nM |
| COc1ccc(NC(=O)Cn2ncc3c2-c2ccccc2OC3)cc1Cl [SR-01000135070] | 1.93 | 1.93 | 89.37 ± 8.48% | – | – | 4.16 | 4.16 | 0.51 | 0.38 | 82.9 nM | 7.87 ± 13.27% | – | – | EC50 (parental HEK cells; [1]): > 14100 nM |
| Cc1ccc(SCC(=O)Nc2nnc(-c3ccco3)o2)cc1 [SR-01000021414] | 2.38 | 2.38 | 97.10 ± 8.84% | – | – | 4.46 | 4.46 | 0.83 | 0.44 | 119 nM | 22.31 ± 11.03% | – | – | EC50 (parental HEK cells; [1]): > 14300 nM |
| Cc1ccc(CN2CCCN(CC(=O)NC3CCCCCCC3)C2=O)c(Cl)c1 [SR-01000146444] | 1.38 | 1.38 | 112.24 ± 16.06% | – | – | 3.54 | 3.54 | 0.93 | 0.35 | – | 20.98 ± 2.11% | – | > 14100 nM | – |
| CC1(c2ccc3c(c2)OCCO3)NC(=O)C(CC(=O)NCC2CCCCC2)C1=O (stereo not shown) [SR-01000074761] | 3.15 | 3.15 | 95.96 ± 3.33% | – | – | 5.32 | 5.32 | 0.92 | 0.34 | 103 nM | 13.40 ± 6.99% | – | > 15400 nM | – |
| O=C(NCCn1ccc2ccccc21)c1cccc(Br)c1 [SR-01000124135] | 0.91 | 0.91 | 71.94 ± 4.54% | – | – | 2.76 | 2.76 | 0.57 | 0.45 | 197 nM | 7.54 ± 4.78% | – | > 14100 nM | – |
| O=c1nc(SCc2ccccc2F)c2c([nH]1)CCC2 [SR-01000914970] | 2.03 | 2.02 | 101.00 ± 9.27% | – | – | 3.98 | 3.97 | 0.53 | 0.50 | 158 nM | −5.66 ± 4.95% | – | – | EC50 (parental HEK cells; [1]): > 14100 nM |
| O=C(NCCCn1ccnc1)c1cc2nc3c(c(C(F)(F)F)n2n1)CCc1ccccc1-3 [SR-01000313440] | 1.45 | 1.38 | 84.05 ± 13.31% | – | – | – | – | – | – | – | 0.31 ± 4.15% | – | > 14100 nM | Efficiency Ligand (GPR139): 0.28; Hill Slope (GPR139): 1.29; Lipophilic Efficiency (logD) (GPR139): 3.07; Lipophilic Efficiency (logP) (GPR139): 3.01; EC50 (GPR139; HEK-GPR139 cells): 332 nM |

Source: US20250099420A1, “SMALL MOLECULE MODULATORS OF GPR139 COMPLEX” (University of Florida Research Foundation, Incorporated, priority 2022, published 2025)
